Data taken from PubChem BioAssay (NCI).
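Results reflect a 48-hour exposure of cells in 96-well plates to compound at five concentrations. TGI denotes the concentration required for complete inhibition of growth.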

Columns and labels:
Test in all cases: growth of human tumour cells (NCI), 48 h
[1] = system: SK-OV-3 ovarian
[2] = system: SK-MEL-28 melanoma
[3] = system: UACC-62 melanoma
[4] = system: SK-MEL-2 melanoma
[5] = system: HOP-92 NSCLC
[6] = system: SNB-19 CNS
[7] = system: UO-31 renal
[8] = system: OVCAR-4 ovarian
[9] = system: HL-60(TB) leukemia
[10] = system: HCT-15 colon
[11] = system: RXF 393 renal
[12] = system: MDA-N
[13] = system: KM12 colon
[14] = system: MDA-MB-435
[15] = system: OVCAR-5 ovarian
[16] = system: U251 CNS
[17] = system: CCRF-CEM leukemia
[18] = system: NCI-H460 lung
[19] = system: MALME-3M melanoma
[20] = system: SR leukemia
[21] = system: M14 melanoma
[22] = system: SN12C renal
[23] = system: COLO 205 colon
[24] = system: A549 NSCLC
[25] = system: PC-3 prostate
[26] = system: NCI-H23 lung
[27] = system: SF-295 CNS
[28] = system: NCI-H522 lung
[29] = system: A498 renal
[30] = system: T-47D breast
[31] = system: HS 578T breast
[32] = system: SF-268 CNS
[33] = system: HCC-2998 colon
[34] = system: SK-MEL-5 melanoma
[35] = system: BT-549 breast
[36] = system: EKVX NSCLC
[37] = system: SNB-75 CNS
[38] = system: IGROV1 ovarian
[39] = system: HCT-116 colon
[40] = system: CAKI-1 renal
[41] = system: SF-539 CNS
[42] = system: ACHN renal
[43] = system: UACC-257 melanoma
[44] = system: TK-10 renal
[45] = system: DU-145 prostate
[46] = system: HT29 colon
[47] = system: SW-620 colon
[48] = system: 786-0 renal
[49] = system: MDA-MB-231 breast
[50] = system: RPMI-8226 leukemia
[51] = system: OVCAR-8 ovarian
[52] = system: MCF7 breast
[53] = system: OVCAR-3 ovarian
[54] = system: HOP-62 NSCLC
[55] = system: MOLT-4 leukemia
[56] = system: NCI-H226 lung
[57] = system: NCI/ADR-RES ovarian
[58] = system: K-562 leukemia

SMILES: O=C(N/N=C\c1ccc([N+](=O)[O-])s1)c1ccncc1
- TGI [1]: > 100 µM
- TGI [2]: > 64.9 µM
- TGI [3]: 15.7 µM
- TGI [4]: 68.5 µM
- TGI [5]: 32.8 µM
- TGI [6]: > 77.4 µM
- TGI [7]: > 38.5 µM
- TGI [8]: 30.2 µM
- TGI [9]: > 22.7 µM
- TGI [10]: > 44 µM
- TGI [11]: 56.6 µM
- TGI [12]: > 55.8 µM
- TGI [13]: 26.8 µM
- TGI [14]: > 55 µM
- TGI [15]: > 66.9 µM
- TGI [16]: > 63.8 µM
- TGI [17]: > 29.1 µM
- TGI [18]: 33.1 µM
- TGI [19]: 23.3 µM
- TGI [20]: 12.2 µM
- TGI [21]: 25.2 µM
- TGI [22]: 26.8 µM
- TGI [23]: 9.22 µM
- TGI [24]: > 66.3 µM
- TGI [25]: > 76.8 µM
- TGI [26]: 38.4 µM
- TGI [27]: 44.5 µM
- TGI [28]: 19.7 µM
- TGI [29]: 53 µM
- TGI [30]: 48.4 µM
- TGI [31]: 50.4 µM
- TGI [32]: 55 µM
- TGI [33]: 24 µM
- TGI [34]: 12.8 µM
- TGI [35]: 27.2 µM
- TGI [36]: 45.6 µM
- TGI [37]: > 100 µM
- TGI [38]: 26 µM
- TGI [39]: 19.5 µM
- TGI [40]: 49.2 µM
- TGI [41]: 43.3 µM
- TGI [42]: > 60.8 µM
- TGI [43]: 31.8 µM
- TGI [44]: > 51.7 µM
- TGI [45]: 79.3 µM
- TGI [46]: 15.9 µM
- TGI [47]: > 45.4 µM
- TGI [48]: 48.8 µM
- TGI [49]: > 89.1 µM
- TGI [50]: > 41.3 µM
- TGI [51]: 49.2 µM
- TGI [52]: 9.96 µM
- TGI [53]: 8.06 µM
- TGI [54]: 35.3 µM
- TGI [55]: > 63.2 µM
- TGI [56]: 17.7 µM
- TGI [57]: > 91.1 µM

SMILES: Clc1cc2nnn(C3CCCO3)c2cc1Cl (stereo unspecified)
- TGI [1]: > 100 µM
- TGI [3]: > 100 µM
- TGI [4]: > 100 µM
- TGI [9]: > 100 µM
- TGI [10]: > 100 µM
- TGI [11]: > 100 µM
- TGI [12]: > 100 µM
- TGI [14]: > 100 µM
- TGI [15]: > 100 µM
- TGI [16]: > 100 µM
- TGI [17]: > 100 µM
- TGI [18]: > 100 µM
- TGI [19]: > 100 µM
- TGI [20]: > 100 µM
- TGI [21]: > 100 µM
- TGI [22]: > 100 µM
- TGI [23]: > 100 µM
- TGI [24]: > 100 µM
- TGI [25]: > 100 µM
- TGI [26]: > 100 µM
- TGI [27]: > 100 µM
- TGI [28]: > 100 µM
- TGI [29]: > 100 µM
- TGI [30]: > 100 µM
- TGI [31]: > 100 µM
- TGI [32]: > 100 µM
- TGI [33]: > 100 µM
- TGI [34]: > 100 µM
- TGI [35]: > 100 µM
- TGI [36]: > 100 µM
- TGI [37]: > 100 µM
- TGI [38]: > 100 µM
- TGI [39]: > 100 µM
- TGI [40]: > 100 µM
- TGI [41]: > 100 µM
- TGI [43]: > 100 µM
- TGI [44]: > 100 µM
- TGI [45]: > 100 µM
- TGI [46]: > 100 µM
- TGI [48]: > 100 µM
- TGI [49]: > 100 µM
- TGI [51]: > 100 µM
- TGI [52]: > 100 µM
- TGI [53]: > 100 µM
- TGI [54]: > 100 µM
- TGI [58]: > 100 µM
- TGI [55]: > 100 µM
- TGI [56]: > 100 µM
- TGI [57]: > 100 µM
